Where two headings read alike, the source gives them in different places.
Key:
[1] = test system: rice blast fungus (Pyricularia grisea); assay type: in vivo; settings: flowable 5,000 ppm, 50 mL irrigation of nursery box, paddy rice; inoculated after 3 weeks; 7 days after inoculation
[2] = test system: rice blast fungus (Pyricularia grisea); assay type: in vivo; settings: 5 g of granule on nursery box, paddy rice; inoculated after 3 weeks; 7 days after inoculation
[3] = test system: rice sheath blight fungus (Thanatephorus cucumeris); assay: Test Example 10: control effect against rice sheath blight by water surface application (flowable formulation); settings: flowable 1,000 ppm, 1 mL dripped in paddy water, inoculated after 1 week, 7 days after inoculation
Description: (§1) Control value (%)=[1−(lesion height in sprayed plot/lesion height in unsprayed plot)]×100 (d)
By dripping treatment in paddy water, 1 mL of a diluted solution (1,000 ppm) of a flowable prepared according to Formulation Example-3 was applied to a 5-leaf-stage paddy rice (variety: Asahi) seedling (5 seedlings/stub, one stub/pot) grown in a pot ( 1/10000 are in size) filled with paddy soil (flooded) within a greenhouse. After growing for 1 week within a greenhouse, a culture of rice sheath blight fungus (Thanatephorus cucumeris) grown in advance on a rice straw medium was inoculated into the root of the formulation-treated paddy rice, and disease development was promoted in an artificial weather chamber at 26° C. (relative humidity=100%). Seven days after the inoculation, the rice sheath blight lesion height (height from the root) was examined, and the control value (%) was calculated according to formula (d). […] This test was performed with three replications, each consisting of one plot and one pot, per one formulation plot, and its average evaluation value of control effect was determined.

[4] = test system: rice blast fungus (Pyricularia grisea); assay type: in vivo; settings: flowable diluted to 100 ppm, 10 mL per pot foliage spray on paddy rice; inoculated day after; 7 days after inoculation
[5] = test system: rice sheath blight fungus (Thanatephorus cucumeris); assay: Test Example 6: control effect against rice sheath blight by box treatment (flowable formulation); settings: flowable 5,000 ppm, 50 mL irrigation of nursery box, paddy rice; inoculated after 3 weeks; 7 days after inoculation
Description: as §1
By irrigation, 50 mL of a diluted solution (5,000 ppm) of a flowable prepared according to Formulation Example-3 was applied to a 2.5-leaf-stage paddy rice (variety: Asahi) seedling raised using a nursery box ( 1/10 the area of standard nursery box in size: 12 cm×15 cm×height 4 cm) within a greenhouse. The formulation-treated paddy rice seedling was immediately transplanted at 5 seedlings/pot into a pot ( 1/10000 are in size) filled with paddy soil (flooded). After growing for 3 weeks within a greenhouse, a culture of rice sheath blight fungus (Thanatephorus cucumeris) grown in advance on a rice straw medium was inoculated into the root of the formulation-treated paddy rice, and disease development was promoted in an artificial weather chamber at 26° C. (relative humidity=100%). Seven days after the inoculation, the rice sheath blight lesion height (height from the root) was examined, and the control value (%) was calculated according to formula (d). […] This test was performed with three replications, each consisting of one plot and one pot, per one formulation plot, and its average evaluation value of control effect was determined.

[6] = test system: rice blast fungus (Pyricularia grisea); assay type: in vivo; settings: flowable 1,000 ppm, 1 mL dripped in paddy water, inoculated after 1 week, 7 days after inoculation
[7] = test system: barley powdery mildew fungus (Erysiphe graminis); assay: Test Example 2: control effect against barley powdery mildew by foliage application; assay type: in vivo; settings: wettable powder diluted to 100 ppm, 10 mL per pot foliage spray on barley; inoculated day after; 7 days after inoculation
[8] = test system: rice sheath blight fungus (Thanatephorus cucumeris); assay: Test Example 8: control effect against rice sheath blight by box treatment (granule); settings: 5 g of granule on nursery box, paddy rice; inoculated after 3 weeks; 7 days after inoculation
Excerpt: as §1
From the top of a nursery box, 5 g of a granule prepared according to Formulation Example-4 was applied to a 2.5-leaf-stage paddy rice (variety: Asahi) seedling raised using a nursery box ( 1/10 the area of standard nursery box in size: 12 cm×15 cm×height 4 cm) within a greenhouse. The formulation-treated paddy rice seedling was immediately transplanted at 5 seedlings/pot into a pot ( 1/10000 are in size) filled with paddy soil (flooded). After growing for 3 weeks within a greenhouse, a culture of rice sheath blight fungus (Thanatephorus cucumeris) grown in advance on a rice straw medium was inoculated into the root of the formulation-treated paddy rice, and disease development was promoted in an artificial weather chamber at 26° C. (relative humidity=100%). Seven days after the inoculation, the rice sheath blight lesion height (height from the root) was examined, and the control value (%) was calculated according to formula (d). […] This test was performed with three replications, each consisting of one plot and one pot, per one formulation plot, and its average evaluation value of control effect was determined.

Row | Structure (SMILES) | evaluation value of control effect (from control value, number of lesions) [1] | evaluation value of control effect (from control value, number of lesions) [2] | evaluation value of control effect (from control value, lesion height) [3] | evaluation value of control effect (from control value, number of lesions) [4] | evaluation value of control effect (from control value, lesion height) [5] | melting point | evaluation value of control effect (from control value, number of lesions) [6] | evaluation value of control effect (from control value, lesion area percentage) [7] | evaluation value of control effect (from control value, lesion height) [8]
1 | CC(C)CC(C)c1ccccc1N(C(=O)c1cccnc1C(F)F)C(=O)c1snc(Cl)c1Cl (stereo not drawn) [13-2, 3,4-Dichloro-N-{2-(difluoromethyl)pyridine-3-carbonyl}-N-{2-(1,3-dimethylbutyl)phenyl}isothiazole-5-carboxamide] | 5 | 5 | 5 | 4 | 5 | 111 to 115.6 °C | 5 | 5 | 5
2 | O=C(c1nccnc1C(F)(F)F)N(c1ccccc1-c1ccc(F)c(F)c1)c1snc(Cl)c1Cl [13-55, N-(3,4-Dichloroisothiazol-5-yl)-N-(3′,4′-difluorobiphen-2-yl)-3-(trifluoromethyl)pyrazine-2-carboxamide] | 5 | 5 | 5 | 4 | 5 | 136.1 to 139.2 °C | 5 | 5 | 5
3 | CC1CC(C)(C)c2cccc(N(C(=O)c3cn(C)nc3C(F)F)C(=O)c3snc(Cl)c3Cl)c21 (stereo not drawn) [25-4, 3,4-Dichloro-N-{3-(difluoromethyl)-1-methyl-pyrazole-4-carbonyl)-N-(2,3-dihydro-1,1,3-trimethyl-1H-inden-4-yl)-isothiazole-5-carboxamide] |  |  | 5 |  | 5 | 154.3 to 155.6 °C |  | 4 | 5
4 | Cc1nn(C)c(Cl)c1C(=O)N(C(=O)c1snc(Cl)c1Cl)c1cccc2c1C(C)OC2(C)C (stereo not drawn) [25-115, 3,4-Dichloro-N-(5-chloro-1,3-dimethyl-pyrazole-4-carbonyl)-N-(1,3-dihydro-1,1,3-trimethylisobenzofuran-4-yl)-isothiazole-5-carboxamide] |  |  | 5 | 4 | 5 | 165.5 to 170.3 °C |  | 4 | 5
5 | Cc1nc(C(F)F)c(C(=O)N(C(=O)c2snnc2C)c2cccc3c2C(C)OC3(C)C)s1 (stereo not drawn) [26-50] | 5 | 5 | 5 | 4 | 5 |  | 5 | 4 | 5
6 | Cc1nc(C(F)F)c(C(=O)N(C(=O)c2scnc2C(F)F)c2cccc3c2C(C)CC3(C)C)s1 (stereo not drawn) [26-85] | 5 | 5 | 5 | 4 | 5 |  | 5 | 5 | 5

Reference: US20210007356A1, “IMIDE DERIVATIVE AND FUNGICIDE CONTAINING SAID DERIVATIVE AS ACTIVE INGREDIENT” (HOKKO CHEMICAL INDUSTRY CO., LTD., priority 2018, published 2021)
